Key:
Assay type in all cases: cell-based, Staphylococcus aureus
MRSA [1] = assay: Recombinant phage luciferase assay, oxacillin vs cefoxitin (Table 1), MRSA strains
Method: Bacterial strains were serially diluted to approximately 1×10^3 CFU/mL and transferred to a 96-well plate at 135 μL per well. 15 μL of oxacillin or cefoxitin were added to the wells to reach a final concentration of 1.0 μg/mL or 2.0 μg/mL of oxicillin or 2.0 μg/mL, 4.0 μg/mL, 8.0 μg/mL, or 10.0 μg/mL of cefoxitin. The plate was then sealed and incubated at 37° C. for 2 hours. 10 μL of recombinant phage (1.6×10^8 pfu/mL) was added to each well. The plate was then re-sealed and incubated at 37° C. for 2 hours. A master mix was made containing 15 μL 5× lysis buffer, 50 μL luciferase assay buffer, and 1 μL luciferase substrate per well. 65 μL of master mix was added to each well. Luminescence from the reactions was read on a GLOMAX® Navigator and relative luminal units (RLU) for each reaction were analyzed. RLU values three times greater than an established background RLU level for LB (>750 RLU) were considered positive. The results, shown in Table 1, indicate that the recombinant phage are capable of detecting the tested bacterial strains.

12600 MSSA = assay: Effect of duration of antibiotic and phage exposure on MSSA signal (Table 5)
Method: Bacterial strains were serially diluted and transferred to a 96-well plate at 135 μL per well. 15 μL of cefoxitin was added to the wells to reach a final concentration of 1.8 μg/mL, 3.6 μg/mL, or 5.4 μg/mL. The plate was then sealed and incubated at 37° C. for 2 hours or 3 hours. 10 μL of recombinant phage (1.6×10^8 pfu/mL) was added to each well. The plate was then re-sealed and incubated at 37° C. for an additional 1 or 2 hours. A master mix was made containing 15 μL 5× lysis buffer, 50 μL luciferase assay buffer, and 1 μL luciferase substrate per well. 65 μL of master mix was added to each well. Luminescence from the reactions was read on a GLOMAX® Navigator and relative luminal units (RLU) for each reaction were plotted and analyzed. RLU values three times greater than an established background RLU level for LB (>750 RLU) were considered positive. The results, shown in Table 5, indicate that the number of MSSA strains producing false-positives at the previously established cut-off of 1.8 μg/mL cefoxitin were reduced with a 3-hour antibiotic/1-hour phage protocol when compared to a 2-hour antibiotic/2-hour phage protocol. A false positive occurred at 541 CFU with the 2-hour antibiotic/2-hour phage protocol. Whereas, the 3-hour antibiotic/1-hour phage protocol produced false positives at 4331 CFU. Positive results are in bold. In Table 5, CFU values (541 CFU and 305 CFU) were experimentally validated by direct plating.

MRSA [2] = assay: Optimization of cefoxitin concentration (Table 2), MRSA strains
Method: Bacterial strains were serially diluted to approximately 1×10^3 CFU/mL and transferred to a 96-well plate at 135 μL per well. 15 μL of cefoxitin was added to the wells to reach a final concentration of 1.4 μg/mL, 1.6 μg/mL, 1.8 μg/mL or 2.0 μg/mL. The plate was then sealed and incubated at 37° C. for 2 hours. 10 μL of recombinant phage (1.6×10^8 pfu/mL) was added to each well. The plate was then re-sealed and incubated at 37° C. for an additional 2 hours. A master mix was made containing 15 μL 5× lysis buffer, 50 μL luciferase assay buffer, and 1 μL luciferase substrate per well. 65 μL of master mix was added to each well. Luminescence from the reactions were read on a GLOMAX® Navigator and relative luminal units (RLU) for each reaction were plotted and analyzed. RLU values three times greater than an established background RLU level for LB (>750 RLU) were considered positive. The results, shown in Table 2, indicate that the recombinant phage are capable of detecting these bacterial strains. […] Positive results are in bold.

[3] = strain AR0463 MRSA, detected CFU 419
[4] = strain AR0465 MRSA, detected CFU 111
[5] = strain AR0472 MRSA, detected CFU 190
[6] = strain AR0476 MRSA, detected CFU 194
[7] = strain AR0481 MRSA, detected CFU 43
[8] = strain BAA-1720 MRSA, detected CFU 201
[9] = strain AR0470 MRSA, detected CFU 314
[10] = strain BAA-2313 MRSA, detected CFU 192

## CO[C@@]1(NC(=O)Cc2cccs2)C(=O)N2C(C(=O)O)=C(COC(N)=O)CS[C@@H]21 [Cefoxitin, cefoxitin]
MRSA [1]; [3]
  Cefoxitin (RLU) 2 ug/mL: 1125 RLU
  Cefoxitin (RLU) 4 ug/mL: 349 RLU
  Cefoxitin (RLU) 8 ug/mL: 287 RLU
  Cefoxitin (RLU) 10 ug/mL: 246 RLU
MRSA [1]; [4]
  Cefoxitin (RLU) 2 ug/mL: 7815 RLU
  Cefoxitin (RLU) 4 ug/mL: 5254 RLU
  Cefoxitin (RLU) 8 ug/mL: 4619 RLU
  Cefoxitin (RLU) 10 ug/mL: 2869 RLU
MRSA [1]; [5]
  Cefoxitin (RLU) 2 ug/mL: 3538 RLU
  Cefoxitin (RLU) 4 ug/mL: 229 RLU
  Cefoxitin (RLU) 8 ug/mL: 239 RLU
  Cefoxitin (RLU) 10 ug/mL: 220 RLU
MRSA [1]; [6]
  Cefoxitin (RLU) 2 ug/mL: 1202 RLU
  Cefoxitin (RLU) 4 ug/mL: 213 RLU
  Cefoxitin (RLU) 8 ug/mL: 204 RLU
  Cefoxitin (RLU) 10 ug/mL: 248 RLU
MRSA [1]; [7]
  Cefoxitin (RLU) 2 ug/mL: 3499 RLU
  Cefoxitin (RLU) 4 ug/mL: 983 RLU
  Cefoxitin (RLU) 8 ug/mL: 222 RLU
  Cefoxitin (RLU) 10 ug/mL: 250 RLU
MRSA [1]; [8]
  Cefoxitin (RLU) 2 ug/mL: 14910 RLU
  Cefoxitin (RLU) 4 ug/mL: 11250 RLU
  Cefoxitin (RLU) 8 ug/mL: 7123 RLU
  Cefoxitin (RLU) 10 ug/mL: 6431 RLU
12600 MSSA; detected CFU 305
  Cefoxitin (RLU) - 2 Hour Antibiotic + 2 Hour Phage 1.8 ug/mL: 600 RLU
  Cefoxitin (RLU) - 2 Hour Antibiotic + 2 Hour Phage 3.6 ug/mL: 225 RLU
  Cefoxitin (RLU) - 2 Hour Antibiotic + 2 Hour Phage 5.4 ug/mL: 244 RLU
  Cefoxitin (RLU) - 3 Hour Antibiotic + 1 Hour Phage 1.8 ug/mL: 267 RLU
  Cefoxitin (RLU) - 3 Hour Antibiotic + 1 Hour Phage 3.6 ug/mL: 198 RLU
  Cefoxitin (RLU) - 3 Hour Antibiotic + 1 Hour Phage 5.4 ug/mL: 184 RLU
12600 MSSA; detected CFU 541
  Cefoxitin (RLU) - 2 Hour Antibiotic + 2 Hour Phage 1.8 ug/mL: 1065 RLU
  Cefoxitin (RLU) - 2 Hour Antibiotic + 2 Hour Phage 3.6 ug/mL: 224 RLU
  Cefoxitin (RLU) - 2 Hour Antibiotic + 2 Hour Phage 5.4 ug/mL: 217 RLU
  Cefoxitin (RLU) - 3 Hour Antibiotic + 1 Hour Phage 1.8 ug/mL: 258 RLU
  Cefoxitin (RLU) - 3 Hour Antibiotic + 1 Hour Phage 3.6 ug/mL: 215 RLU
  Cefoxitin (RLU) - 3 Hour Antibiotic + 1 Hour Phage 5.4 ug/mL: 171 RLU
12600 MSSA; detected CFU 1083
  Cefoxitin (RLU) - 2 Hour Antibiotic + 2 Hour Phage 1.8 ug/mL: 1718 RLU
  Cefoxitin (RLU) - 2 Hour Antibiotic + 2 Hour Phage 3.6 ug/mL: 395 RLU
  Cefoxitin (RLU) - 2 Hour Antibiotic + 2 Hour Phage 5.4 ug/mL: 277 RLU
  Cefoxitin (RLU) - 3 Hour Antibiotic + 1 Hour Phage 1.8 ug/mL: 415 RLU
  Cefoxitin (RLU) - 3 Hour Antibiotic + 1 Hour Phage 3.6 ug/mL: 201 RLU
  Cefoxitin (RLU) - 3 Hour Antibiotic + 1 Hour Phage 5.4 ug/mL: 208 RLU
12600 MSSA; detected CFU 2165
  Cefoxitin (RLU) - 2 Hour Antibiotic + 2 Hour Phage 1.8 ug/mL: 3046 RLU
  Cefoxitin (RLU) - 2 Hour Antibiotic + 2 Hour Phage 3.6 ug/mL: 424 RLU
  Cefoxitin (RLU) - 2 Hour Antibiotic + 2 Hour Phage 5.4 ug/mL: 331 RLU
  Cefoxitin (RLU) - 3 Hour Antibiotic + 1 Hour Phage 1.8 ug/mL: 604 RLU
  Cefoxitin (RLU) - 3 Hour Antibiotic + 1 Hour Phage 3.6 ug/mL: 218 RLU
  Cefoxitin (RLU) - 3 Hour Antibiotic + 1 Hour Phage 5.4 ug/mL: 202 RLU
12600 MSSA; detected CFU 4331
  Cefoxitin (RLU) - 2 Hour Antibiotic + 2 Hour Phage 1.8 ug/mL: 5703 RLU
  Cefoxitin (RLU) - 2 Hour Antibiotic + 2 Hour Phage 3.6 ug/mL: 563 RLU
  Cefoxitin (RLU) - 2 Hour Antibiotic + 2 Hour Phage 5.4 ug/mL: 487 RLU
  Cefoxitin (RLU) - 3 Hour Antibiotic + 1 Hour Phage 1.8 ug/mL: 933 RLU
  Cefoxitin (RLU) - 3 Hour Antibiotic + 1 Hour Phage 3.6 ug/mL: 196 RLU
  Cefoxitin (RLU) - 3 Hour Antibiotic + 1 Hour Phage 5.4 ug/mL: 194 RLU
12600 MSSA; detected CFU 8662
  Cefoxitin (RLU) - 2 Hour Antibiotic + 2 Hour Phage 1.8 ug/mL: 11570 RLU
  Cefoxitin (RLU) - 2 Hour Antibiotic + 2 Hour Phage 3.6 ug/mL: 1224 RLU
  Cefoxitin (RLU) - 2 Hour Antibiotic + 2 Hour Phage 5.4 ug/mL: 979 RLU
  Cefoxitin (RLU) - 3 Hour Antibiotic + 1 Hour Phage 1.8 ug/mL: 1563 RLU
  Cefoxitin (RLU) - 3 Hour Antibiotic + 1 Hour Phage 3.6 ug/mL: 247 RLU
  Cefoxitin (RLU) - 3 Hour Antibiotic + 1 Hour Phage 5.4 ug/mL: 224 RLU
12600 MSSA; detected CFU 17323
  Cefoxitin (RLU) - 2 Hour Antibiotic + 2 Hour Phage 1.8 ug/mL: 22890 RLU
  Cefoxitin (RLU) - 2 Hour Antibiotic + 2 Hour Phage 3.6 ug/mL: 2071 RLU
  Cefoxitin (RLU) - 2 Hour Antibiotic + 2 Hour Phage 5.4 ug/mL: 1493 RLU
  Cefoxitin (RLU) - 3 Hour Antibiotic + 1 Hour Phage 1.8 ug/mL: 2695 RLU
  Cefoxitin (RLU) - 3 Hour Antibiotic + 1 Hour Phage 3.6 ug/mL: 255 RLU
  Cefoxitin (RLU) - 3 Hour Antibiotic + 1 Hour Phage 5.4 ug/mL: 246 RLU
MRSA [2]; 1.8 ug/mL, most of the tested MRSA strains
  effect on positive signal: produced a positive signal
MRSA [2]; strain AR0461 MRSA, detected CFU 140
  Cefoxitin Concentration 1.4 ug/mL: 9488 RLU
MRSA [2]; strain AR0467 MRSA, detected CFU 198
  Cefoxitin Concentration 2 ug/mL: 6615 RLU
MRSA [2]; strain AR0469 MRSA, detected CFU 473
  Cefoxitin Concentration 1.8 ug/mL: 13490 RLU
MRSA [2]; [9]
  Cefoxitin Concentration 1.6 ug/mL: 2481 RLU
  Cefoxitin Concentration 1.8 ug/mL: 2046 RLU
MRSA [2]; [10]
  Cefoxitin Concentration 1.4 ug/mL: 8601 RLU
  Cefoxitin Concentration 1.6 ug/mL: 5620 RLU
  Cefoxitin Concentration 1.8 ug/mL: 3239 RLU
  Cefoxitin Concentration 2 ug/mL: 2385 RLU

Reference: patent publication US11952611B2, “Methods and systems for detection of antibiotic resistance” (Laboratory Corporation of America Holdings, priority 2017, dated 2024)
